Measurements published in patent US11001891B2, “Methods for treating Parkinson's disease” (Berg LLC, priority 2016, dated 2021).

Legend:
Type in all cases: cell-based, human
SH-SY5Y cells [1] = assay: PIG3 protein, cleaved PARP and cell death in SH-SY5Y cells treated with 6-OHDA; conditions: 6-OHDA 0, 50 and 100 μm, 48 hours
Protocol: This experiment was similar to the experiment described in Example 1, except that the in vitro chemical model of Parkinson's Disease involved treatment of SH-SY5Y cells with oxidopamine, also known as 6-hydroxydopamine (6-OHDA) or 2,4,5-trihydroxyphenethylamine 6-OHDA is known to have a selective adverse effect on dopaminergic and noradrenergic neurons. The structure of 6-OHDA is shown below:
For the experiment, SH-SY5Y cells were treated with 6-OHDA at a concentration of 0, 50 and 100 μm for 48 hours. Following the treatment, the amount of PIG3 protein in the cells and the extent of SH-SY5Y cell death were assessed. Cells treated with etoposide were used as a positive control. Apoptosis in the treated cells was assessed by measuring the amount of cleaved poly(ADP-ribose) polymerase (PARP).

PIG3 = PIG3 expression in patient-specific iPSCs after neurotoxin treatment; conditions: rotenone 0-1,000 nm or 6-OHDA 0.5-10 μM, 48 hours
Protocol: (§1) For the experiment, patient-specific iPSCs were prepared by reprogramming primary dermal fibroblasts harvested from the upper arm of PD+ and unaffected donors using a non-integrating, self-replicating polycistronic RNA construct containing the reprogramming factors OCT4, SOX2, KLF4 and GLIS1 (Millipore, Simplicon™) according to published protocols. […] Following the treatment, the amount of PIG3 protein in the cells and cell viability were assessed.

[2] = tested on: patient-specific induced pluripotent stem cells (iPSCs); conditions: rotenone 0-1,000 nm or 6-OHDA 0.5-10 μM, 48 hours
Protocol: as §1

LRRK2-PD neurons = conditions: iPSC-derived LRRK2-PD neurons, increasing concentrations of neurotoxin
Protocol: IPSCs were prepared from LRRK2-PD fibroblasts and then differentiated towards excitatory cortical neurons as described in the above examples and following published protocols (e.g., Shi et al., Nat. Neurosci. 2012, 15(3):10.1038; Chamber et al. Nat. Biotechnology, 2009, 27:275-280, the entire contents of which are incorporated herein by reference).

PIG3 protein = assay: Time course of PIG3 protein in SH-SY5Y cells after 6-OHDA (immunoblot); conditions: 50 nm 6-OHDA, normalized to actin
Protocol: The purpose of this experiment was to access the effect of overexpression of PIG3 on cell viability and reactive oxygen species (ROS) production. To this end, SH-SY5Y cells stably overexpressing the PIG3 open reading frame (PIG3 ORF) were created and characterized by determining their viability, ROS burden and the amount of PIG3 protein produced in response to treatment with 50 nM 6-OHDA. Cell viability was measured relative to the empty vector control, pLOC (CTRL). ROS burden was estimated using DCFDA fluorescence measured by flow cytometry; and the amount of PIG3 protein was measured by immunoblotting and normalizing the densitometry of immunoreactivity to the amount of actin as a loading control.

SH-SY5Y cells [3] = assay: Cell death in SH-SY5Y cells treated with rotenone or 6-OHDA (in vitro chemical model of Parkinson's Disease); conditions: 48 hours rotenone or 6-OHDA in the presence vs absence of inhibitor
Source text: The purpose of this experiment was to test the effect of inhibiting the expression of PIG3 in an in vitro chemical model of Parkinson's Disease. For this experiment, an siRNA capable of inhibiting the expression of PIG3 (PIG3 siRNA) was synthesized and tested in SH-SY5Y cells against a non-targeting […] (NTC).
(§2) The purpose of this experiment was to test the effect of inhibiting the p38 MAPK activity on cell death and the expression of PIG3 in in vitro chemical model of Parkinson's Disease. […] SH-SY5Y cell death and PIG3 mRNA expression were assessed following treatment.
(§3) The purpose of this experiment was to test the effect of inhibiting LRRK2 activity on cell death and the expression of PIG3 in in vitro chemical model of Parkinson's Disease. […] SH-SY5Y cell death and PIG3 mRNA expression were assessed following treatment.

PIG3 mRNA = PIG3 mRNA expression in SH-SY5Y cells treated with rotenone or 6-OHDA in presence of kinase inhibitor; conditions: 48 hours rotenone or 6-OHDA in the presence vs absence of inhibitor
Protocol: as §2, §3

SH-SY5Y cells [4] = assay: PIG3 protein, cleaved PARP and cell death in SH-SY5Y cells treated with rotenone; conditions: rotenone 0, 50, 100 and 500 nm, 48 hours, immunoblot
Protocol: The purpose of this experiment was to evaluate the expression of PIG3 and cell viability in an in vitro chemical model of Parkinson's Disease.
Following the treatment, the amount of PIG3 protein in the cells and the extent of SH-SY5Y cell death were assessed. Cells treated with etoposide, which is known to induce apoptosis, were used as a positive control. Apoptosis in the treated cells was assessed by measuring the amount of cleaved poly(ADP-ribose) polymerase

SMILES | apoptosis (cleaved PARP) / cell death (SH-SY5Y cells [1]) | amount of PIG3 protein (SH-SY5Y cells [1]; immunoblot) | PIG3 expression (PIG3) | iPSC viability [2] | PIG3 protein (LRRK2-PD neurons) | cleaved PARP expression (LRRK2-PD neurons) | relative amounts of PIG3 protein at different times after treatment (PIG3 protein) | cell death (SH-SY5Y cells [3]) | PIG3 mRNA expression (PIG3 mRNA) | amount of PIG3 protein (SH-SY5Y cells [4])
NCCc1cc(O)c(O)cc1O [6-OHDA, 2,4,5-trihydroxyphenethylamine] | 6-OHDA-induced apoptosis | increased as a function of increasing concentration of 6-OHDA | increased PIG3 expression | decreased viability | further increases | further increases | time-dependent accumulation of PIG3 protein |  |  | 
COc1cc(C(=O)N2CCC(N3CCN(C)CC3)CC2)ccc1Nc1ncc2c(n1)N(C)c1ccccc1C(=O)N2C [LRRK2-IN-1] |  |  |  |  |  |  |  | decreased cell death | decreased PIG3 mRNA expression | 
C[S+]([O-])c1ccc(-c2nc(-c3ccncc3)c(-c3ccc(F)cc3)[nH]2)cc1 (centres unmarked) [SB203580] |  |  |  |  |  |  |  | decreased cell death | decreased PIG3 mRNA expression | 
C=C(C)[C@H]1Cc2c(ccc3c2O[C@@H]2COc4cc(OC)c(OC)cc4[C@@H]2C3=O)O1 [rotenone] |  |  | increased PIG3 expression |  | further increases |  |  |  |  | increased as a function of increasing concentration of rotenone
